These results are taken from patent publication US5786145A, “Oligonucleotide competitors for binding of HIV RRE to REV protein and assays for screening inhibitors of this binding” (Medical Research Council, priority 1995, dated 1998).

Set-up in all cases: species or system HIV-1
Data set [1] deals with rev protein. As to the kind of experiment: Competition filter binding against 32P-labelled R7 (FIGS. 13, 17). To be noted: 1.5 nM labelled R7, 24 nM rev, 0-60 nM competitor. As for the experimental part:
In these experiments, uniformly ^32 P-labelled R7 (1.5 nM) was competed against 0-60 nM unlabelled competitor RNA in the presence of 24 nM rev protein.
The mixtures for competition binding (0.5 ml) included 1.5 nM ^32 P-labelled R7 (ca. 20,000 cpm), 24 nM rev protein, 1.5 ug/ml calf thymus DNA, 0.67 ug/ml yeast rRNA, varying concentrations (0-60 nM) of unlabelled competitor RNA and 80 units/ml RNasin in TK buffer (50 mM Tris-HCl (pH7.9) and 20 mM KCl). Binding was allowed to take place for more than 15 min on ice, and each mixture was passed through a Millipore GS filter (a 2.5 cm disk with a pore size of 0.22 um) prewashed twice with 0.6 ml of ice-cold TK buffer. The filter was washed with 0.6 ml of cold TK buffer and dried. The radioactivity retained on the filter was counted by liquid scintillation, and the results were plotted on a graph (FIG. 13).

Data set [2] has as its system rev protein. As to the kind of experiment: Scatchard analysis of RBC6 binding to rev (FIG. 14). Conditions: 0.6 nM labelled RBC6, 0-150 nM unlabelled RBC6, 24 nM rev; read-out: Kd (binding constant) from Scatchard plot. How it is done:
(§1) Binding experiments were carried out using labelled RBC6 (SEQ ID NO:20 and SEQ ID NO:21) duplex formed frm the 5'-^32 P-labelled 14-mer oligoribonucleotide annealed to the 15 mer (0.6 nM) and 0-150 nM unlabelled RBC6 in the presence of 24 nM rev protein.
The mixtures for binding (0.5 ml) included 0.6 nM ^32 P-labelled RBC6 (SEQ ID NO:20 and SEQ ID NO:21) (ca. 20,000 cpm), 24 nM rev protein, varying concentrations (0-150 nM) of unlabelled RBC6 (SEQ ID NO:20 and SEQ ID NO:21) and 80 units/ml RNasin in TK buffer. The filter binding assays were carried out as described above, and a Scatchard plot (FIG. 14) was obtained from the results.

In data set [3] the test system is rev protein. Put plainly: Saturation binding of rev protein to labelled RBC6 (FIG. 15). To be noted: 1.5 nM labelled RBC6, 0-50 nM rev; read-out: Kd from saturation binding, Scatchard plot. How it is done: as §1
The mixtures for binding (0.5 ml) included 1.5 nM ^32 P-labelled RBC6 (SEQ ID NO:20 and SEQ ID NO:21) (ca. 20,000 cpm), varying concentrations (0-50 nM) of rev protein and 80 units/ml RNasin in TK buffer. The filter binding assays were carried out as described above, and the results were plotted on a graph (FIG. 15).

Take “RBC6: chemically synthesized RNA duplex (14-mer annealed to 15-mer), bubble with six base pairs on each side (chain 1 CGUGUGGGCGCAGC; chain 2 GCUGCGGUACACACG; RNA, backbone not given here)”: in the data set with rev protein [1], the “competition for rev binding against labelled R7, result in words” value is “competed about half as well as R7”. In addition, the Kd is approximately 3 nM with rev protein [2] and 3.8 nM in the data set with rev protein [3].
